Among the test systems are COLO 205 colon; DU-145 prostate; HT29 colon; MOLT-4 leukemia; NCI-H226 lung; OVCAR-5 ovarian; OVCAR-8 ovarian; SK-MEL-28 melanoma; SK-MEL-5 melanoma; SNB-75 CNS.
Holding throughout (experiment): NCI-60 cell line screen, 48 h

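Dose response: 5 concentrations. Exposure: 48 h. Format: 96-well plates. Endpoint: linear interpolation; highest concentration if not reached. Here, GI50 denotes the concentration required for 50% inhibition of growth. The concentration for full growth arrest is given as TGI.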

On to `COc1cc([C@H]2c3cc(O)c(OC)cc3C[C@]3(O)[C@@H]2CO[C@@H]3O)ccc1O`, for which the TGI in the experiment on COLO 205 colon, in the experiment with DU-145 prostate, in the experiment with HT29 colon, with MOLT-4 leukemia, with NCI-H226 lung and in the experiment with OVCAR-5 ovarian was more than 100 µM in each case. The TGI with OVCAR-8 ovarian, in the experiment on SK-MEL-28 melanoma, with SK-MEL-5 melanoma and in the experiment with SNB-75 CNS was more than 100 µM each time.

As to `O=C(NCc1cccnc1)c1ccc([N+](=O)[O-])o1`, the GI50 in the experiment with COLO 205 colon is 659 nM; with DU-145 prostate, 1.11 µM; in the experiment with HT29 colon, 825 nM; in the experiment on MOLT-4 leukemia, more than 20000 nM; in the experiment on NCI-H226 lung it was 4.21 µM; in the experiment on OVCAR-5 ovarian, 5.64 µM. The GI50 is 2.37 µM in the experiment with OVCAR-8 ovarian, 2.83 µM with SK-MEL-28 melanoma, 2180 nM with SK-MEL-5 melanoma and 1180 nM in the experiment on SNB-75 CNS. The TGI was 1.28 µM in the experiment on COLO 205 colon; 4.11 µM in the experiment on DU-145 prostate; 2.37 µM in the experiment with HT29 colon; more than 32.5 µM with MOLT-4 leukemia; 13.2 µM in the experiment on NCI-H226 lung; 18 µM with OVCAR-5 ovarian. Further, the TGI with OVCAR-8 ovarian came out at 14.5 µM; in the experiment with SK-MEL-28 melanoma it was 7.58 µM; in the experiment on SK-MEL-5 melanoma it was 6.38 µM; with SNB-75 CNS, 7.24 µM.

Take `CCNc1nc(-c2ccc(Cl)c(OC)c2)c(-c2ccnc(NCCNS(=O)(=O)c3ccc(Cl)cc3)n2)s1`: the GI50 in the experiment on COLO 205 colon was 2320 nM; with DU-145 prostate, 3.94 µM; with HT29 colon, 2920 nM; in the experiment on NCI-H226 lung, 2.81 µM; in the experiment on OVCAR-5 ovarian it was 3.67 µM; with OVCAR-8 ovarian, 3.88 µM. The GI50 in the experiment with SK-MEL-28 melanoma was 3.33 µM; in the experiment with SK-MEL-5 melanoma, 1560 nM; in the experiment on SNB-75 CNS it was 2350 nM. The TGI in the experiment on COLO 205 colon was 6.61 µM; in the experiment on DU-145 prostate it was more than 100 µM; in the experiment with HT29 colon, 20.1 µM; in the experiment with NCI-H226 lung it was 14.3 µM; with OVCAR-5 ovarian, more than 100 µM; with OVCAR-8 ovarian, more than 100 µM. The TGI with SK-MEL-28 melanoma is more than 100 µM; with SK-MEL-5 melanoma it was 3.23 µM; in the experiment with SNB-75 CNS, 29.8 µM.

Regarding `COC(=O)C(NC(=O)c1ccccc1)c1ccc(OC)c(I)c1` (centres undefined), the GI50 was 80800 nM with COLO 205 colon; more than 100 µM with DU-145 prostate; 49000 nM in the experiment on HT29 colon; 48900 nM in the experiment on MOLT-4 leukemia; more than 100 µM in the experiment on NCI-H226 lung; more than 100 µM with OVCAR-5 ovarian. Moreover, the GI50 in the experiment with OVCAR-8 ovarian is more than 100 µM; in the experiment with SK-MEL-28 melanoma it was 76.4 µM; in the experiment on SK-MEL-5 melanoma, 44200 nM; in the experiment on SNB-75 CNS, 56700 nM. Further, the TGI with COLO 205 colon, with DU-145 prostate, in the experiment with HT29 colon, in the experiment with MOLT-4 leukemia, in the experiment with NCI-H226 lung and with OVCAR-5 ovarian was more than 100 µM in each case. For the same compound, the TGI in the experiment with OVCAR-8 ovarian, with SK-MEL-28 melanoma, in the experiment on SK-MEL-5 melanoma and with SNB-75 CNS was more than 100 µM in each case.

As for `CCc1c[nH]c2ncnc(N3CC[C@](N)(CNC(=O)c4ccc(F)cc4F)C3)c12`, the GI50 is 8120 nM in the experiment with COLO 205 colon; 18.3 µM in the experiment with DU-145 prostate; 3100 nM in the experiment on HT29 colon; 439 nM with MOLT-4 leukemia; 5.75 µM with NCI-H226 lung; 21.7 µM with OVCAR-5 ovarian. In addition, the GI50 is 28.2 µM with OVCAR-8 ovarian, 7.46 µM with SK-MEL-28 melanoma, 15800 nM with SK-MEL-5 melanoma and 76.8 nM in the experiment on SNB-75 CNS. Besides, the TGI with COLO 205 colon is more than 64.8 µM; in the experiment with DU-145 prostate it was more than 100 µM; in the experiment on HT29 colon, more than 100 µM; with MOLT-4 leukemia it was 46.2 µM; with NCI-H226 lung it was more than 77.7 µM; with OVCAR-5 ovarian, more than 100 µM. The TGI is more than 100 µM with OVCAR-8 ovarian, more than 100 µM in the experiment with SK-MEL-28 melanoma, more than 52.5 µM in the experiment with SK-MEL-5 melanoma and 7.97 µM in the experiment with SNB-75 CNS.

On to `CN1CCN(Cc2ccc(NC(=O)c3cncc(C#Cc4cnc5cccnn45)c3)cc2C(F)(F)F)CC1`, for which the GI50 was 1020 nM in the experiment on COLO 205 colon; 1.54 µM in the experiment with DU-145 prostate; 963 nM in the experiment with HT29 colon; 1420 nM in the experiment with MOLT-4 leukemia; 0.286 µM in the experiment with NCI-H226 lung; 1.27 µM with OVCAR-5 ovarian. Moreover, the GI50 was 1.66 µM in the experiment on OVCAR-8 ovarian, 1.3 µM in the experiment with SK-MEL-28 melanoma, 1060 nM with SK-MEL-5 melanoma and 914 nM in the experiment on SNB-75 CNS. In addition, the TGI in the experiment on COLO 205 colon stood at 2.91 µM; in the experiment with DU-145 prostate, 5.34 µM; in the experiment with HT29 colon, 5.1 µM; with MOLT-4 leukemia it was 5.34 µM; in the experiment with NCI-H226 lung it was 2.48 µM; with OVCAR-5 ovarian, 6.04 µM. For the same compound, the TGI is 6.3 µM with OVCAR-8 ovarian, 4.63 µM in the experiment with SK-MEL-28 melanoma, 2.42 µM in the experiment with SK-MEL-5 melanoma and 1.88 µM in the experiment with SNB-75 CNS.

For the compound `Cn1c(=O)c(Oc2ccc(F)cc2F)cc2cnc(NC3CCC(O)CC3)nc21` (centres undefined), the GI50 in the experiment with COLO 205 colon is more than 25000 nM; in the experiment with DU-145 prostate, more than 25 µM; in the experiment with HT29 colon, more than 25000 nM; with MOLT-4 leukemia, more than 25000 nM; with NCI-H226 lung, more than 25 µM; with OVCAR-5 ovarian, more than 25 µM. The GI50 in the experiment on OVCAR-8 ovarian is more than 25 µM; with SK-MEL-28 melanoma, more than 25 µM; with SK-MEL-5 melanoma, more than 25000 nM; with SNB-75 CNS, more than 25000 nM. Moreover, the TGI with COLO 205 colon, in the experiment with DU-145 prostate, in the experiment with HT29 colon, with MOLT-4 leukemia, in the experiment with NCI-H226 lung and with OVCAR-5 ovarian was more than 25 µM throughout. In addition, the TGI in the experiment with OVCAR-8 ovarian, in the experiment on SK-MEL-28 melanoma, in the experiment on SK-MEL-5 melanoma and in the experiment on SNB-75 CNS was more than 25 µM each time.

For the compound `COc1cc(-c2nn(-c3cccc(NC(=O)c4cccc(C(F)(F)F)c4)c3)cc2-c2ccncc2)ccc1Cl`, the GI50 in the experiment on COLO 205 colon is 1640 nM; in the experiment on DU-145 prostate, 1.76 µM; with HT29 colon, 1390 nM; in the experiment on MOLT-4 leukemia, 2010 nM; in the experiment on NCI-H226 lung, 1.66 µM; with OVCAR-5 ovarian, 4.01 µM. For the same compound, the values for the GI50 with OVCAR-8 ovarian, with SK-MEL-28 melanoma and in the experiment with SK-MEL-5 melanoma were 2 µM, 2.49 µM and 978 nM, respectively. Further, the TGI is 5.17 µM with COLO 205 colon; 32.1 µM in the experiment on DU-145 prostate; 20.1 µM with HT29 colon; more than 50 µM in the experiment on MOLT-4 leukemia; 27 µM in the experiment on NCI-H226 lung; more than 50 µM with OVCAR-5 ovarian. In addition, the results for the TGI with OVCAR-8 ovarian, with SK-MEL-28 melanoma and in the experiment on SK-MEL-5 melanoma were more than 50 µM, more than 50 µM and 2.47 µM, respectively.

`CC(C)C12CCC3(CCC4C(C)(C(=O)O)CCCC4(C)C3C1)C(CN)C2` (centres undefined): the TGI with COLO 205 colon was 33.2 µM; in the experiment on DU-145 prostate, more than 100 µM; in the experiment on HT29 colon, 47.2 µM; in the experiment on NCI-H226 lung, more than 100 µM; in the experiment with OVCAR-5 ovarian, 90.4 µM; in the experiment with OVCAR-8 ovarian, more than 100 µM. In addition, the TGI with SK-MEL-28 melanoma is more than 100 µM; in the experiment with SK-MEL-5 melanoma, 86.2 µM; in the experiment with SNB-75 CNS, more than 100 µM.

With `COc1ccc(Cl)cc1Nc1nc(C(F)(F)F)ccc1C(=O)N/N=C/c1ccc(Cl)cc1`, the GI50 with COLO 205 colon is 2760 nM; with DU-145 prostate it was 7.02 µM; in the experiment with HT29 colon, 7400 nM; in the experiment with MOLT-4 leukemia, 1760 nM; in the experiment with NCI-H226 lung, 4.18 µM; in the experiment on OVCAR-5 ovarian it was 6.48 µM. Besides, the results for the GI50 in the experiment with OVCAR-8 ovarian, in the experiment on SK-MEL-28 melanoma and with SK-MEL-5 melanoma were 5.1 µM, 74 µM and 2230 nM, respectively. For the same compound, the TGI is more than 100 µM in the experiment on COLO 205 colon; more than 100 µM in the experiment on DU-145 prostate; more than 100 µM in the experiment on HT29 colon; 11.1 µM with MOLT-4 leukemia; more than 100 µM in the experiment with NCI-H226 lung; more than 100 µM in the experiment on OVCAR-5 ovarian. Besides, the TGI is more than 100 µM in the experiment with OVCAR-8 ovarian, more than 100 µM in the experiment with SK-MEL-28 melanoma and 23.5 µM with SK-MEL-5 melanoma.

In the case of `Clc1ccc(N=CNc2ccc(-c3nc4ccccc4[nH]3)cc2)cc1`, the GI50 in the experiment with COLO 205 colon was 3990 nM; in the experiment with DU-145 prostate it was 59.2 µM; in the experiment on MOLT-4 leukemia, more than 100000 nM; with NCI-H226 lung, 65.4 µM; with OVCAR-5 ovarian, more than 100 µM; with OVCAR-8 ovarian, 64.1 µM. The GI50 in the experiment with SK-MEL-28 melanoma was 22.8 µM; with SK-MEL-5 melanoma, 39900 nM; with SNB-75 CNS, 36100 nM. Moreover, the TGI with COLO 205 colon, with DU-145 prostate, in the experiment with MOLT-4 leukemia, with NCI-H226 lung, in the experiment on OVCAR-5 ovarian and in the experiment with OVCAR-8 ovarian was more than 100 µM in each case. Also, the TGI was 63.6 µM in the experiment with SK-MEL-28 melanoma, more than 100 µM in the experiment with SK-MEL-5 melanoma and more than 100 µM with SNB-75 CNS.

With `O=C(c1ccccc1)c1ccc(N2C(=O)C3C4c5ccccc5C(/C=C/C(=O)c5ccccn5)(c5ccccc54)C3C2=O)cc1` (centres undefined), the GI50 is 3720 nM with COLO 205 colon; 2.78 µM in the experiment on DU-145 prostate; 2920 nM in the experiment with HT29 colon; 2290 nM in the experiment with MOLT-4 leukemia; 2.06 µM in the experiment on NCI-H226 lung; 2 µM with OVCAR-5 ovarian. Further, the GI50 was 2.56 µM with OVCAR-8 ovarian, 2360 nM with SK-MEL-5 melanoma and 940 nM in the experiment with SNB-75 CNS. Also, the TGI was 20.8 µM with COLO 205 colon; 8.1 µM with DU-145 prostate; more than 100 µM in the experiment on HT29 colon; more than 100 µM with MOLT-4 leukemia; 4.48 µM with NCI-H226 lung; 5.97 µM with OVCAR-5 ovarian. Further, the TGI with OVCAR-8 ovarian was more than 100 µM; with SK-MEL-5 melanoma it was 5.71 µM; with SNB-75 CNS, more than 100 µM.
